Measured values reported in patent US20230146455A1, “TREATMENT OF INFLAMMATORY DISEASES WITH PEPTIDES AND PHARMACEUTICAL COMPOSITIONS” (Yuyu Pharma, Inc., priority 2020, published 2023).
Values joined by “and” are separate entries in the source; they are usually repeats but may differ in a detail not shown here. Equal values may be shown once. Where a SMILES comes first, the peptide text is derived from it. [ ]: non-standard residue; d: D form. Hyp = O=C(O)[C@@H]1C[C@@H](O)CN1

Experiments:
[1] = tested on: TNF-alpha; assay: Example 9 Luminex, LPS hPBMCs: TNF-alpha; format: cell-based, human
Method: (§1) Treatment Human PBMCs were pretreated with YY-101, YDE-011 and YDE-043 or reference compound; Xiidra® at various concentration (ranging from 1 nM to 100 uM) for 2 h before stimulation. An equal volume of 0.5% DMSO was used as a vehicle control. Then, the cells were treated with LPS at 5 ug/ml. The supernatants from treated cells were harvested at 24 h and placed in a 96 well for Luminex cytokine & chemokine profiling using a Luminex 200 multiplex assay (Luminex; R&D system, USA).
(§2) The main study arm with triplicate wells per group in a 24-well plate: • 1. Blank • 2. PBMC: 0.5% DMSO • 3. PBMC+LPS (5 ug/ml) • 4. PBMC+YY-101 100 uM • 5. PBMC+YY-101 10 uM • 6. PBMC+YY-101 1 uM • 7. PBMC+YY-101 0.1 uM • 8. PBMC+YY-101 0.01 uM • 9. PBMC+LPS (5 ug/ml)+Xiidra®100 uM • 10. PBMC+LPS (5 ug/ml)+Xiidra® 10 uM • 11. PBMC+LPS (5 ug/ml)+Xiidra® 1 uM • 12. PBMC+LPS (5 ug/ml)+Xiidra®0.1 uM • 13. PBMC+LPS (5 ug/ml)+Xiidra®0.01 uM • 14. PBMC+LPS (5 ug/ml)+Xiidra®0.001 uM • 15. PBMC+LPS (5 ug/ml)+YY-101 100 uM • 16. PBMC+LPS (5 ug/ml)+YY-101 10 uM • 17. PBMC+LPS (5 ug/ml)+YY-101 1 uM • 18. PBMC+LPS (5 ug/ml)+YY-101 0.1 uM • 19. PBMC+LPS (5 ug/ml)+YY-101 0.01 uM • 20. PBMC+LPS (5 ug/ml)+YY-101 0.001 uM • 21. PBMC+LPS (5 ug/ml)+YDE-011 100 uM • 22. PBMC+LPS (5 ug/ml)+YDE-011 10 uM • 23. PBMC+LPS (5 ug/ml)+YDE-011 1 uM • 24. PBMC+LPS (5 ug/ml)+YDE-011 0.1 uM • 25. PBMC+LPS (5 ug/ml)+YDE-011 0.01 uM • 26. PBMC+LPS (5 ug/ml)+YDE-011 0.001 uM • 27. PBMC+LPS (5 ug/ml)+YDE-043 100 uM • 28. PBMC+LPS (5 ug/ml)+YDE-043 10 uM • 29. PBMC+LPS (5 ug/ml)+YDE-043 1 uM • 30. PBMC+LPS (5 ug/ml)+YDE-043 0.1 uM • 31. PBMC+LPS (5 ug/ml)+YDE-043 0.01 uM • 32. PBMC+LPS (5 ug/ml)+YDE-043 0.001 uM
(§3) Multiplex assay was used to measure 30 cytokines and chemokines. The 1:2, 1:10 and 1:200 diluted cell supernatant and serial dilution of the standard were dispensed into a 96 well plate at 50 ul/well. Then, the pre-mixed cocktail of antibody-coated magnetic beads was dispensed at 50 ul/well and incubated at room temperature for 2 h in a horizontal orbital microplate shaker at 800±500 rpm. The beads were washed using a magnetic device to prevent loss. The biotin-antibody was dispensed in 50 ul of each well and incubated at room temperature for 1 h in a shaker at 800±500 rpm. After washing, streptavidin-PE was added at 50 ul/well and incubated at room temperature for 30 min in a shaker under the same conditions. Finally, after washing, wash buffer (100 ul/well) was added to the plate and incubated in a shaker for 2 min. The Luminex™ 200 setting were set according to the manufacturer's protocol. The data was calculated with a standard five-parameter logistic nonlinear regression analysis of the data (xPonent software 4.2, USA). The levels of cytokine/chemokine are normalized to the live cell counts (1×10^5 cells/mL) and presented as concentrations per mL (pg/mL or ng/mL).

[2] = tested on: TIMP-1; assay: Example 9 Luminex, LPS hPBMCs: TIMP-1; format: cell-based, human; conditions: PBMC + LPS(5 ug/ml)
Method: as §1, §2, §3

[3] = PBMC + LPS(5 ug/ml) + test article 0.001 uM, Mean
[4] = PBMC + LPS(5 ug/ml) + test article 0.001 uM, individual replicates (1st, 2nd, 3rd)
[5] = PBMC + LPS(5 ug/ml) + test article 0.01 uM, Mean
[6] = PBMC + LPS(5 ug/ml) + test article 0.01 uM, individual replicates (1st, 2nd, 3rd)
[7] = PBMC + LPS(5 ug/ml) + test article 0.1 uM, Mean
[8] = PBMC + LPS(5 ug/ml) + test article 0.1 uM, individual replicates (1st, 2nd, 3rd)
[9] = PBMC + LPS(5 ug/ml) + test article 1 uM, Mean
[10] = PBMC + LPS(5 ug/ml) + test article 1 uM, individual replicates (1st, 2nd, 3rd)
[11] = PBMC + LPS(5 ug/ml) + test article 10 uM, Mean
[12] = PBMC + LPS(5 ug/ml) + test article 10 uM, individual replicates (1st, 2nd, 3rd)
[13] = PBMC + LPS(5 ug/ml) + test article 100 uM, Mean
[14] = PBMC + LPS(5 ug/ml) + test article 100 uM, individual replicates (1st, 2nd, 3rd)
[15] = test article 0.001 uM, single replicates
[16] = test article 0.01 uM, single replicates
[17] = test article 0.1 uM, single replicates
[18] = test article 1 uM, single replicates
[19] = test article 10 uM, single replicates
[20] = test article 100 uM, single replicates

Compound: CC(C)C[C@H](NC(=O)[C@H](CCC(N)=O)NC(=O)CNC(=O)[C@@H]1C[C@@H](O)CN1)C(=O)NCC(=O)O [YDE-043] (H-[Hyp]GQLG-OH; N-terminus and C-terminus assumed)
- TNF-alpha Concentration [1, 3]: 1325.0 pg/mL
- TNF-alpha conc/live cell [1, 3]: 268.4 pg/10^5
- TNF-alpha Concentration [1, 4]: 1248.3 pg/mL and 1405.1 pg/mL and 1321.4 pg/mL
- TNF-alpha conc/live cell [1, 4]: 283.7 pg/10^5 and 234.2 pg/10^5 and 287.3 pg/10^5
- TNF-alpha Concentration [1, 5]: 1327.4 pg/mL
- TNF-alpha conc/live cell [1, 5]: 253.6 pg/10^5
- TNF-alpha Concentration [1, 6]: 1282.6 pg/mL and 1322.9 pg/mL and 1376.7 pg/mL
- TNF-alpha conc/live cell [1, 6]: 285.0 pg/10^5 and 200.4 pg/10^5 and 275.3 pg/10^5
- TNF-alpha Concentration [1, 7]: 1319.0 pg/mL
- TNF-alpha conc/live cell [1, 7]: 244.5 pg/10^5
- TNF-alpha Concentration [1, 8]: 1254.3 pg/mL and 1333.4 pg/mL and 1369.2 pg/mL
- TNF-alpha conc/live cell [1, 8]: 250.9 pg/10^5 and 238.1 pg/10^5 and 244.5 pg/10^5
- TNF-alpha Concentration [1, 9]: 1260.8 pg/mL
- TNF-alpha conc/live cell [1, 9]: 238.1 pg/10^5
- TNF-alpha Concentration [1, 10]: 1330.4 pg/mL and 1136.7 pg/mL and 1315.4 pg/mL
- TNF-alpha conc/live cell [1, 10]: 229.4 pg/10^5 and 236.8 pg/10^5 and 248.2 pg/10^5
- TNF-alpha Concentration [1, 11]: 1247.9 pg/mL
- TNF-alpha conc/live cell [1, 11]: 231.0 pg/10^5
- TNF-alpha Concentration [1, 12]: 1175.4 pg/mL and 1249.8 pg/mL and 1318.4 pg/mL
- TNF-alpha conc/live cell [1, 12]: 226.0 pg/10^5 and 231.4 pg/10^5 and 235.4 pg/10^5
- TNF-alpha Concentration [1, 13]: 901.5 pg/mL
- TNF-alpha conc/live cell [1, 13]: 143.3 pg/10^5
- TNF-alpha Concentration [1, 14]: 956.0 pg/mL and 847.0 pg/mL
- TNF-alpha conc/live cell [1, 14]: 154.2 pg/10^5 and 132.4 pg/10^5
- TIMP-1 Concentration ([2]; test article 0.001 uM, Mean): 2001.5 pg/mL
- TIMP-1 MFI ([2]; test article 0.001 uM, Mean): 1096.8
- TIMP-1 conc/live cell ([2]; test article 0.001 uM, Mean): 406.7 pg/10^5
- TIMP-1 Concentration [2, 15]: 1887.3 pg/mL and 2046.6 pg/mL and 2070.5 pg/mL
- TIMP-1 MFI [2, 15]: 1014.0 and 1129.5 and 1147.0
- TIMP-1 conc/live cell [2, 15]: 428.9 pg/10^5 and 341.1 pg/10^5 and 450.1 pg/10^5
- TIMP-1 Concentration ([2]; test article 0.01 uM, Mean): 1986.7 pg/mL
- TIMP-1 MFI ([2]; test article 0.01 uM, Mean): 1085.8
- TIMP-1 conc/live cell ([2]; test article 0.01 uM, Mean): 380.0 pg/10^5
- TIMP-1 Concentration [2, 16]: 2007.5 pg/mL and 1991.7 pg/mL and 1960.7 pg/mL
- TIMP-1 MFI [2, 16]: 1101.0 and 1089.5 and 1067.0
- TIMP-1 conc/live cell [2, 16]: 446.1 pg/10^5 and 301.8 pg/10^5 and 392.1 pg/10^5
- TIMP-1 Concentration ([2]; test article 0.1 uM, Mean): 1829.5 pg/mL
- TIMP-1 MFI ([2]; test article 0.1 uM, Mean): 972.8
- TIMP-1 conc/live cell ([2]; test article 0.1 uM, Mean): 339.9 pg/10^5
- TIMP-1 Concentration [2, 17]: 1850.4 pg/mL and 1718.3 pg/mL and 1919.9 pg/mL
- TIMP-1 MFI [2, 17]: 987.5 and 893.5 and 1037.5
- TIMP-1 conc/live cell [2, 17]: 370.1 pg/10^5 and 306.8 pg/10^5 and 342.8 pg/10^5
- TIMP-1 Concentration ([2]; test article 1 uM, Mean): 1838.3 pg/mL
- TIMP-1 MFI ([2]; test article 1 uM, Mean): 979.0
- TIMP-1 conc/live cell ([2]; test article 1 uM, Mean): 348.3 pg/10^5
- TIMP-1 Concentration [2, 18]: 1928.2 pg/mL and 1809.9 pg/mL and 1776.9 pg/mL
- TIMP-1 MFI [2, 18]: 1043.5 and 958.5 and 935.0
- TIMP-1 conc/live cell [2, 18]: 332.5 pg/10^5 and 377.1 pg/10^5 and 335.3 pg/10^5
- TIMP-1 Concentration ([2]; test article 10 uM, Mean): 1844.9 pg/mL
- TIMP-1 MFI ([2]; test article 10 uM, Mean): 983.7
- TIMP-1 conc/live cell ([2]; test article 10 uM, Mean): 342.1 pg/10^5
- TIMP-1 Concentration [2, 19]: 1853.9 pg/mL and 1912.3 pg/mL and 1768.4 pg/mL
- TIMP-1 MFI [2, 19]: 990.0 and 1032.0 and 929.0
- TIMP-1 conc/live cell [2, 19]: 356.5 pg/10^5 and 354.1 pg/10^5 and 315.8 pg/10^5
- TIMP-1 Concentration ([2]; test article 100 uM, Mean): 2156.3 pg/mL
- TIMP-1 MFI ([2]; test article 100 uM, Mean): 1210.3
- TIMP-1 conc/live cell ([2]; test article 100 uM, Mean): 342.6 pg/10^5
- TIMP-1 Concentration [2, 20]: 2247.5 pg/mL and 2065.1 pg/mL
- TIMP-1 MFI [2, 20]: 1277.5 and 1143.0
- TIMP-1 conc/live cell [2, 20]: 362.5 pg/10^5 and 322.7 pg/10^5
